Series [1] addresses T1, human metabotropic glutamate 7 receptor (hmGlu7) (Homo sapiens, UniProt Q14831).
T1 construct: expressed in transfected cells
As to the kind of experiment: mGlu7 assay on HEK-expressing human mGlu7: fluorescent cell based Ca2+ mobilization assay (FLIPR), inhibition of EC80 L-AP4 response. To be noted: HEK-293 cells expressing hmGlu7; EC80 L-AP4 stimulation; mean of at least three independent experiments in duplicate; read-out: Ca2+ Flux (mean IC50). Put shortly: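 HEK293 cells stably expressing hmGlu7 with a calcium-redirecting G protein were Fluo4-AM-loaded and assayed at pH 7.4 in HEPES buffer. Compounds were monitored for 180 s for agonism, then cells were challenged with EC80 L-AP4 for 110 s. IC50 was obtained from four-parameter fits, as the mean of ≥3 experiments run in duplicate.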
On the technique in general: A change in cytosolic calcium serves as a functional read-out for many receptors and channels.

pIC50: −log10 of the molar value. A value given as a limit tells only on which side of the number the result lay.

T1 sequence (Q14831 35-922 isoform Q14831-2): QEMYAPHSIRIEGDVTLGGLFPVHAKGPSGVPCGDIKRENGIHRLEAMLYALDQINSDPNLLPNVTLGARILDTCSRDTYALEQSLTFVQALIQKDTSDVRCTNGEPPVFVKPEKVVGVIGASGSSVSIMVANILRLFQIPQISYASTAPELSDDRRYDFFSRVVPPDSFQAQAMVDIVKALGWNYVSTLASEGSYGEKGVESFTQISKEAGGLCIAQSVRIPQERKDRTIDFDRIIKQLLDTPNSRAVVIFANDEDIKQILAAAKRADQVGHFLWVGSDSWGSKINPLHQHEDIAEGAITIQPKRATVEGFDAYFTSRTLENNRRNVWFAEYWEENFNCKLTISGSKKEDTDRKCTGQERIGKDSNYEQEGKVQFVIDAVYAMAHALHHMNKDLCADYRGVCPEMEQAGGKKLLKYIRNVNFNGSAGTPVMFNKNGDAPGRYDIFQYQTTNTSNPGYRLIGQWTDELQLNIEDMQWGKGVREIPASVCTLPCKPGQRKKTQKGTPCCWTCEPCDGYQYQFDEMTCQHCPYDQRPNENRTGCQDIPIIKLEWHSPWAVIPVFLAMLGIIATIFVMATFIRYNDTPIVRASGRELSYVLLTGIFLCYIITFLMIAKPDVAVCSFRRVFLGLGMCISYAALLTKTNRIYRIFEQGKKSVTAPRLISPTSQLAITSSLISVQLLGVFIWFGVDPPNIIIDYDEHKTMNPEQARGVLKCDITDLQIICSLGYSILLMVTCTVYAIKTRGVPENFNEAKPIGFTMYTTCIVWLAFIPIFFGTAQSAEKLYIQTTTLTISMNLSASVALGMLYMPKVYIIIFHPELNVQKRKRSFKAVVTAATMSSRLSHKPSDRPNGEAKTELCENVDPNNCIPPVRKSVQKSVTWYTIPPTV

Usually pIC50 stands for −log10 of the IC50, conventionally taken in molar units. As usually defined, the melting point is the temperature, or range, at which the solid turns liquid. As for `Cc1c2cnn(-c3ncccn3)c(=O)c2c(C)n1-c1cccc(OC2CC2)c1Cl` [1-215, 6-(2-Chloro-3-cyclopropoxyphenyl)-5,7-dimethyl-2-(pyrimidin-2-yl)-2,6-dihydro-1H-pyrrolo[3,4-d]pyridazin-1-one], the melting point was found to be 228 °C. In series [1], the pIC50 was > 7.00.

The record behind these values is patent publication US20240262833A1, “FUSED HETEROCYCLIC DERIVATIVES AS NEGATIVE ALLOSTERIC MODULATORS OF MGLU7 RECEPTOR” (Addex Pharma S.A., priority 2021, published 2024).
